Assays:
Format in all cases: in vivo
Heliothis virescens [1] = experiment: Heliothis virescens (tobacco budworm) egg/larval test on artificial diet; conditions: 96 h; for pest or weed control at 0.8 ppm: application rate 0.8 ppm; for pest or weed control at 3 ppm: application rate 3 ppm
Plutella xylostella [2] = experiment: Plutella xylostella (diamond back moth) larval test on artificial diet; conditions: 144 h; for pest or weed control at 0.8 ppm: application rate 0.8 ppm; for pest or weed control at 3 ppm: application rate 3 ppm
Diabrotica balteata [3] = experiment: Diabrotica balteata (corn root worm) larval test on artificial diet; conditions: 120 h, read-out: Control/% Diabrotica balteata Corn rootworm; for pest or weed control at 12 ppm: application rate 12 ppm; for pest or weed control at 50 ppm: application rate 50 ppm; for pest or weed control at 3 ppm: application rate 3 ppm
Plutella xylostella [4] = experiment: Plutella xylostella (diamond back moth) larval test on artificial diet; conditions: 144 h, application rate 200 ppm (concentration in well 18 ppm), L2 larvae on artificial diet, 6 days
Experimental: (§1) 24-well microtiter plate (MTP) with artificial diet was treated with test solutions at an application rate of 200 ppm (concentration in well 18 ppm) by pipetting. After drying, the MTP's were infested with L2 larvae (7-12 per well). After an incubation period of 6 days, samples were checked for larval mortality and growth regulation.

Heliothis virescens [5] = experiment: Heliothis virescens (tobacco budworm) egg/larval test on artificial diet; conditions: 96 h, application rate 200 ppm (concentration in well 18 ppm), eggs on artificial diet, 4 days
Experimental: Eggs (0-24 h old) were placed in 24-well microtiter plate on artificial diet and treated with test solutions at an application rate of 200 ppm (concentration in well 18 ppm) by pipetting. After an incubation period of 4 days, samples were checked for egg mortality, larval mortality, and growth regulation.

Spodoptera littoralis = Spodoptera littoralis (Egyptian cotton leafworm) leaf disc test; conditions: foliar, 72 h, application rate 200 ppm, cotton leaf discs, L1 larvae, mortality, feeding behavior, growth regulation 3 DAT
Description: Spodoptera littoralis (Egyptian Cotton Leafworm): Cotton leaf discs were placed on agar in a 24-well microtiter plate and sprayed with test solutions at an application rate of 200 ppm. After drying, the leaf discs were infested with 5 L1 larvae. The samples were checked for mortality, feeding behavior, and growth regulation 3 days after treatment (DAT).

Diabrotica balteata [6] = experiment: Diabrotica balteata (corn root worm) larval test on artificial diet; conditions: 120 h, application rate 200 ppm (concentration in well 18 ppm), L2 larvae on artificial diet, 5 days
Experimental: as §1, with “Diabrotica balteata (Corn Root Worm): A 24-well” for “24-well”, “(6-10” for “(7-12”, “5” for “6”

Tetranychus urticae = Tetranychus urticae (two-spotted spider mite) leaf disc test; conditions: foliar, 192 h, application rate 200 ppm, bean leaf discs, 8 days
Description: Bean leaf discs on agar in 24-well microtiter plates were sprayed with test solutions at an application rate of 200 ppm. After drying, the leaf discs are infested with mite populations of mixed ages. 8 days later, discs are checked for egg mortality, larval mortality, and adult mortality.

Myzus persicae = Myzus persicae (green peach aphid), systemic test; conditions: 144 h, application rate 12.5 ppm, roots of pea seedlings in test solution, 6 days
Description: Myzus persicae (Green peach aphid), systemic test: Roots of pea seedlings, infested with an aphid population of mixed ages, are placed directly in the test solutions at an application rate of 12.5 ppm. 6 days after introduction, samples are checked for mortality and special effects on the plant. The following compounds gave at least 80% control of Myzus persicae: […]

Thrips tabaci = Thrips tabaci (onion thrips) leaf disc test; conditions: foliar, 168 h, application rate 200 ppm, sunflower leaf discs, 7 days
Experimental: Sunflower leaf discs were placed on agar in a 24-well microtiter plate and sprayed with test solutions at an application rate of 200 ppm. After drying, the leaf discs were infested with a thrips population of mixed ages. After an incubation period of 7 days, samples were checked for mortality.

Compound	pest or weed control at 0.8 ppm (Heliothis virescens [1]) [%]	pest or weed control at 3 ppm (Heliothis virescens [1]) [%]	pest or weed control at 0.8 ppm (Plutella xylostella [2]) [%]	pest or weed control at 3 ppm (Plutella xylostella [2]) [%]	pest or weed control at 12 ppm (Diabrotica balteata [3]) [%]	pest or weed control at 50 ppm (Diabrotica balteata [3]) [%]	pest or weed control at 200 ppm (Plutella xylostella [4]) [%]	pest or weed control at 200 ppm (Heliothis virescens [5]) [%]	pest or weed control at 200 ppm (Spodoptera littoralis) [%]	pest or weed control at 200 ppm (Diabrotica balteata [6]) [%]	pest or weed control at 200 ppm (Tetranychus urticae) [%]	pest or weed control at 12.5 ppm (Myzus persicae) [%]	pest or weed control at 200 ppm (Thrips tabaci) [%]	pest or weed control at 3 ppm (Diabrotica balteata [3]) [%]	pest or weed control at 0.2 ppm (Heliothis virescens [1]; application rate 0.2 ppm) [%]	pest or weed control at 0.2 ppm (Plutella xylostella [2]; application rate 0.2 ppm) [%]	pest or weed control at 0.8 ppm (Diabrotica balteata [3]; application rate 0.8 ppm) [%]
CSc1ccc(C2=NOC(c3cc(Cl)cc(Cl)c3)(C(F)(F)F)C2)cc1C (centres unmarked) [Compound 1-020]	0	0	0	0	20												
O=C(C[S+]([O-])c1ccc(C2=NOC(c3cc(Cl)cc(Cl)c3)(C(F)(F)F)C2)cc1)NCC(F)(F)F (centres unmarked) [Compound 1-029]	0	80	0	80	50	100											
O=C(CSc1ccc(C2=NOC(c3cc(Cl)cc(Cl)c3)(C(F)(F)F)C2)cc1Br)NCC(F)(F)F (centres unmarked) [Compound A29, 2-{2-bromo-4-[5-(3,5-dichloro-phenyl)-5-trifluoromethyl-4,5-dihydro-isoxazol-3-yl]-phenylsulfanyl}-N-(2,2,2-trifluoro-ethyl)-acetamide]							≥ 80	≥ 80	≥ 80	≥ 80	≥ 80	≥ 80	≥ 80				
N#CC1(NC(=O)CSc2ccc(C3=NOC(c4cc(Cl)cc(Cl)c4)(C(F)(F)F)C3)cc2Cl)CC1 (centres unmarked) [Compound A60, 2-[2-chloro-4-[5-(3,5-dichlorophenyl)-5-(trifluoromethyl)-4H-isoxazol-3-yl]phenyl]sulfanyl-N-(1-cyanocyclopropyl)acetamide]							≥ 80	≥ 80	≥ 80	≥ 80	≥ 80	≥ 80	≥ 80				
O=C(CSc1ccc(C2=NO[C@@](c3cc(Cl)c(Cl)c(Cl)c3)(C(F)(F)F)C2)cc1Cl)NC1CC1 [Compound D4, 2-[2-chloro-4-[(5S)-5-(3,4,5-trichlorophenyl)-5-(trifluoromethyl)-4H-isoxazol-3-yl]phenyl]sulfanyl-N-cyclopropyl-acetamide]							≥ 80	≥ 80	≥ 80	≥ 80	≥ 80	≥ 80	≥ 80				
O=C(CSc1ccc(C2=NO[C@@](c3cc(Cl)cc(Cl)c3)(C(F)(F)F)C2)c2ccccc12)NCC(F)(F)F [Compound G2, 2-[[4-[5-(S)-(3,5-dichlorophenyl)-5-(trifluoromethyl)-4H-isoxazol-3-yl]-1-naphthyl]sulfanyl]-N-(2,2,2-trifluoroethyl)acetamide]							≥ 80	≥ 80	≥ 80	≥ 80	≥ 80	≥ 80	≥ 80				
O=C(CS(=O)(=O)c1ccc(C2=NCC(c3cc(Cl)cc(Cl)c3)(C(F)(F)F)C2)cc1Cl)NCC(F)(F)F (centres unmarked) [Compound B3, 2-{2-chloro-4-[4-(3,5-Dichloro-phenyl)-4-trifluoromethyl-4,5-dihydro-3H-pyrrol-2-yl]-benzenesulfonyl}-N-(2,2,2-trifluoro-ethyl)-acetamide]							≥ 80	≥ 80	≥ 80	≥ 80	≥ 80	≥ 80	≥ 80				
O=C(C[S+]([O-])c1ccc(C2=NO[C@@](c3cc(Cl)c(Cl)c(Cl)c3)(C(F)(F)F)C2)cc1Cl)NCC(F)(F)F (stereo partly drawn) [Compound D2, 2-[2-chloro-4-[(5S)-5-(3,4,5-trichlorophenyl)-5-(trifluoromethyl)-4H-isoxazol-3-yl]phenyl]sulfinyl-N-(2,2,2-trifluoroethyl)acetamide]							≥ 80	≥ 80	≥ 80	≥ 80	≥ 80	≥ 80	≥ 80				
Cc1cc(C2=NOC(c3cc(Cl)cc(Cl)c3)(C(F)(F)F)C2)ccc1S(C)(=O)=O (centres unmarked) [Compound 1-021]	0	0	0	0	0	90											
O=C(CSc1ccc(C2=NOC(c3cc(Cl)cc(Cl)c3)(C(F)(F)F)C2)c2ccccc12)NCC(F)(F)F (centres unmarked) [Compound G1, 2-[[4-[5-(3,5-dichlorophenyl)-5-(trifluoromethyl)-4H-isoxazol-3-yl]-1-naphthyl]sulfanyl]-N-(2,2,2-trifluoroethyl)acetamide]							≥ 80	≥ 80	≥ 80	≥ 80	≥ 80	≥ 80	≥ 80				
O=C(CSc1ccc(C2=NO[C@@](c3cc(Cl)c(Cl)c(Cl)c3)(C(F)(F)F)C2)cc1Cl)NCC(F)(F)F [Compound D1, 2-[2-chloro-4-[(5S)-5-(3,4,5-trichlorophenyl)-5-(trifluoromethyl)-4H-isoxazol-3-yl]phenyl]sulfanyl-N-(2,2,2-trifluoroethyl)acetamide]							≥ 80	≥ 80	≥ 80	≥ 80	≥ 80	≥ 80	≥ 80				
O=C(CS(=O)(=O)c1ccc(C2=NO[C@@](c3cc(Cl)c(Cl)c(Cl)c3)(C(F)(F)F)C2)cc1Cl)NCC(F)(F)F [Compound D3, 2-[2-chloro-4-[(5S)-5-(3,4,5-trichlorophenyl)-5-(trifluoromethyl)-4H-isoxazol-3-yl]phenyl]sulfonyl-N-(2,2,2-trifluoroethyl)acetamide]							≥ 80	≥ 80	≥ 80	≥ 80	≥ 80	≥ 80	≥ 80				
O=C(CS(=O)(=O)c1ccc(C2=NOC(c3cc(Cl)cc(Cl)c3)(C(F)(F)F)C2)cc1)NCC(F)(F)F (centres unmarked) [Compound 1-030]	0	80	0	0	50	100											
Cc1cc(C2=NOC(c3cc(Cl)cc(Cl)c3)(C(F)(F)F)C2)ccc1[S+](C)[O-] (centres unmarked)	0	0	0	0	0									0			
O=C(CSc1ccc(C2=NOC(c3cc(Cl)cc(Cl)c3)(C(F)(F)F)C2)cc1)NCC(F)(F)F (centres unmarked) [Compound 1-028]	0	90	0	50	100									20	0	0	0

Reference: US8895587B2, “Insecticidal compounds based on arylthioacetamide derivatives” (Syngenta Participations AG, priority 2011, dated 2014)
